According to US10662193B2, “Carbazole and carboline compounds for use in the diagnosis, treatment, alleviation or prevention of disorders associated with amyloid or amyloid-like proteins” (AC IMMUNE SA, priority 2014, dated 2020):

Columns and labels:
[1] = test system: Aβ plaques on AD brain section; experiment: Assay 1: displacement of Compound B on human AD brain sections (fluorescence); format: binding
Procedure, shortened: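 Frozen […] amygdala sections from Braak V-VI AD donors were preincubated with test compound at 250 μM in 50% ethanol for 20 min at room temperature, then with fluorescent Compound B at 1 μM for 20 min. Staining read at 365 nm excitation; plaques quantified by image analysis.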

[2] = test system: tau tangles on AD brain section; experiment: Assay 1: displacement of RefA on human AD brain sections (fluorescence); format: binding; details: for Selectivity (tau/Abeta): ratio of competition on tau tangles to competition on Aβ plaques
Procedure, shortened: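 Braak V-VI AD amygdala frozen sections were preincubated with test compound at 250 μM in 50% ethanol for 20 min at room temperature. Fluorescent RefA at 1 μM in 50% ethanol was then added for 20 min, imaged at 470 nm excitation, and tangles were quantified.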

AD brain-enriched PHF = AD brain-enriched PHF (Homo sapiens, UniProt P10636); experiment: Assay 2 (filter trap): [3H]RefA radio-binding competition assay and Ki on PHF; details: [^3H]RefA 10 nM, PHF diluted 1/80, compound 0.12 nM to 50 μM
Method: Displacement of [^3H]RefA by Compounds of this Invention
50 g of frontal lobe tissue from post-mortem brain of an Alzheimer's disease (AD) patient were obtained from the London Tissue Bank. The patient was a […] and died […]. The brain sample was collected 5 hours post-mortem and characterized for Braak disease stage (Braak, H.; Braak, E. Acta Neuropathol., 1991, 82, 239-259) as stage VI. For the enrichment of PHF's, around 15 g of the AD human brain was thawed on ice and homogenized with 50 ml of homogenization buffer [0.75 M NaCl in RAB buffer (100 mM 2-(N-morpholino) ethanesulfonic acid (MES), 1 mM EGTA, 0.5 mM MgSO4, 2 mM DTT, pH 6.8) supplemented with protease inhibitors (Complete; Roche 11697498001) in a glass Dounce homogenizer. The homogenate was then incubated at 4° C. for 20 min to let any residual microtubules depolymerize, before the homogenate was transferred into polycarbonate centrifuge bottles (16×76 mm; Beckman 355603) and centrifuged at 11,000 g (12,700 RPM) in an ultracentrifuge (Beckman, XL100K) for 20 min at 4° C. using the pre-cooled 70.1 rotor (Beckman, 342184). Pellets were kept on ice. Supernatants were pooled into polycarbonate bottles and centrifuged again at 100,000 g (38,000 RPM) for 1 h at 4° C. in the 70.1 Ti rotor to isolate PHF-rich pellets, whereas soluble tau remained in the supernatants. The pellets from the first and second centrifugations were re-suspended in 120 mL of extraction buffer [10 mM Tris-HCl pH 7.4, 10% sucrose, 0.85 M NaCl, 1% protease inhibitor (Calbiochem 539131), 1 mM EGTA, 1% phosphatase inhibitor (Sigma P5726 and P0044)]. The solution was then transferred into polycarbonate centrifuge bottles (16×76 mm; Beckman 355603) and centrifuged at 15,000 g (14,800 RPM) in an ultracentrifuge (Beckman, XL100K) for 20 min at 4° C. using the 70.1 Ti rotor. In the presence of 10% sucrose and at low speed centrifugation, most PHF remained in the supernatant whereas intact or fragmented NFTs and larger PHF aggregates were pelleted. The pellets were discarded. 20% Sarkosyl (Sigma L7414-10ML) was added to the supernatants to a final concentration of 1% and stirred at room temperature for 1 h. This solution was then centrifuged into polycarbonate bottles at 100,000 g (38,000 RPM) for 1 h at 4° C. in the 70.1 Ti rotor, and the pellets containing PHF-rich material were re-suspended in a total final volume of 1.5 mL of PBS, aliquoted and stored at −80° C.
[^3H]RefA Radio-Binding Competition Assay
AD brain-enriched PHF diluted 1/80 were incubated in the presence of [^3H]RefA at 10 nM and the example compounds of this invention at 2.5 μM (250× excess), for 45 minutes at 37° C. Samples were then analyzed by on GF/B filter plates as described above (in the section “[^3H]RefA radio-binding assay and determination of the dissociation constant (Kd)). Non-specific signal was determined again with an excess of un-labeled RefA and specific binding calculated by subtracting the non-specific signal from the total signal. Competition was calculated as percent, where 0% was defined as the specific binding in the presence of vehicle (2.8% DMSO in PBS) and 100% as the values obtained in the presence of excess cold RefA. Similar assays were performed to determine the competition of the cold compounds on [^3H]RefA on in vitro aggregated recombinant human tau or Abeta1-42 For both recombinant proteins, 20 μg/mL of aggregates were incubated with 10 nM of [^3H]RefA for recombinant human tau or 80 nM of [^3H]RefA for recombinant human Abeta1-42.
Determination of the Binding Affinity (Ki)
Samples were then analyzed on GF/B filter plates as described above and Ki values calculated using Prism V5 (GraphPad).

AD brain-enriched PHF, sequence (P10636 623-708 limits assumed): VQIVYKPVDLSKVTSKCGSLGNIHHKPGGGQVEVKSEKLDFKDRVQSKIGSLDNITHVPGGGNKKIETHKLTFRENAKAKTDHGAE

| Competition on AD brain section Aβ plaques (1 μM Compound B vs 250 μM compound) [1] | Competition on AD brain section tau tangles (1 μM RefA vs. 250 μM compound) [2] | Selectivity (tau/Abeta) [2] | Ki (AD brain-enriched PHF) | SMILES |
| --- | --- | --- | --- | --- |
| 0% | 97% | >97 fold | 7.8 nM | Cn1c2ccncc2c2ccc(Nc3ccc(OC(F)F)cc3)nc21 [Example 9] |
| 0% | 96% | >96 fold | 22 nM | Cn1c2ccncc2c2ccc(Nc3ccc(F)c(F)c3)nc21 [Example 2] |
| 6% | 90% | ~15 fold | 26 nM | Cn1c2ccncc2c2ccc(Nc3cccc(OCCF)c3)nc21 [Example 8] |
